Test results published in ChEMBL document CHEMBL1201862, “PubChem BioAssay data set” (2004).
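96-well plates; 48 h exposure; 5 concentrations. Endpoints by linear interpolation between flanking doses. Not reached: highest tested concentration assigned. GI50 is the concentration that inhibits growth by half.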 Calls of active or inactive are those of the source. Cut-off read from the data, not from the text of the source: active = GI50 up to about 1.1 µM and inactive = higher.

Key:
Experiment in all cases: NCI-60 cell line screen, 48 h
[1] = system: 786-0
[2] = system: A498
[3] = system: KM12
[4] = system: M14
[5] = system: UACC-62
[6] = system: MOLT-4
[7] = system: Malme-3M
[8] = system: HCT-116
[9] = system: HOP-92
[10] = system: SF-295
[11] = system: EKVX
[12] = system: NCI-H522
[13] = system: SN12C
[14] = system: SW-620
[15] = system: OVCAR-3
[16] = system: M19-MEL
[17] = system: HT-29
[18] = system: Hs-578T
[19] = system: PC-3
[20] = system: BT-549

## CCCCCC(O)(CCCCC)CCCCCCCCC1=C(O)C(=O)c2ccc(=O)[nH]c2C1=O
[1]
  GI50: 8.63 µM (inactive)
[2]
  GI50: 12.2 µM (inactive)
[3]
  GI50: 11 µM (inactive)
[4]
  GI50: 10 µM (inactive)
[5]
  GI50: 3.2 µM (inactive)
[6]
  GI50: 6.3 µM (inactive)
[7]
  GI50: 3.75 µM (inactive)
[8]
  GI50: 4.34 µM (inactive)
[9]
  GI50: 13.3 µM (inactive)
[10]
  GI50: 4.37 µM (inactive)
[11]
  GI50: 13.4 µM (inactive)
[12]
  GI50: 4.78 µM (inactive)
[13]
  GI50: 7.64 µM (inactive)
[14]
  GI50: 8 µM (inactive)
[15]
  GI50: 4.23 µM (inactive)
[16]
  GI50: 3.88 µM (inactive)
[17]
  GI50: 15.3 µM (inactive)

## CCCCCCCCCCCCCCCCCCCCCC(=O)Nc1ccn(C2OC(CO)C(O)C2O)c(=O)n1 (configuration not stated)
[1]
  GI50: 9.62 µM (inactive)
[2]
  GI50: 34.2 µM (inactive)
[3]
  GI50: > 100 µM (inactive)
[4]
  GI50: 4.91 µM (inactive)
[5]
  GI50: 33.6 µM (inactive)
[6]
  GI50: 0.273 µM (active)
[7]
  GI50: > 42.4 µM (inactive)
[8]
  GI50: 6.89 µM (inactive)
[9]
  GI50: > 40.8 µM (inactive)
[10]
  GI50: > 84.3 µM (inactive)
[11]
  GI50: > 100 µM (inactive)
[12]
  GI50: > 100 µM (inactive)
[13]
  GI50: > 60.8 µM (inactive)
[14]
  GI50: > 57.4 µM (inactive)
[15]
  GI50: > 100 µM (inactive)
[16]
  GI50: 8.17 µM (inactive)
[17]
  GI50: > 100 µM (inactive)

## NC(=S)N1N=C2c3ccccc3CCC[C@H]2[C@@H]1c1ccccc1
[1]
  GI50: 1.01 µM (active)
[2]
  GI50: 3.1 µM (inactive)
[3]
  GI50: 0.693 µM (active)
[4]
  GI50: 0.315 µM (active)
[6]
  GI50: 0.638 µM (active)
[7]
  GI50: 0.488 µM (active)
[8]
  GI50: 1.26 µM (inactive)
[10]
  GI50: 1.03 µM (active)
[11]
  GI50: 9.23 µM (inactive)
[12]
  GI50: 0.361 µM (active)
[13]
  GI50: 2.52 µM (inactive)
[14]
  GI50: 0.385 µM (active)
[15]
  GI50: 0.661 µM (active)
[18]
  GI50: 0.552 µM (active)
[16]
  GI50: 2.81 µM (inactive)
[19]
  GI50: 1.1 µM (active)
[20]
  GI50: 0.406 µM (active)
[17]
  GI50: 0.867 µM (active)

## O=C(c1ccncc1)n1nc(-c2ccccc2)c(/N=N/c2ccccc2[N+](=O)[O-])c1-c1ccccc1
[1]
  GI50: 76 µM (inactive)
[2]
  GI50: 70.3 µM (inactive)
[3]
  GI50: 19.3 µM (inactive)
[4]
  GI50: > 100 µM (inactive)
[5]
  GI50: 75.3 µM (inactive)
[6]
  GI50: 38.9 µM (inactive)
[7]
  GI50: > 100 µM (inactive)
[8]
  GI50: 44.3 µM (inactive)
[9]
  GI50: 35.6 µM (inactive)
[10]
  GI50: 32.1 µM (inactive)
[11]
  GI50: 9.04 µM (inactive)
[12]
  GI50: 56 µM (inactive)
[13]
  GI50: > 100 µM (inactive)
[14]
  GI50: 67.3 µM (inactive)
[15]
  GI50: 45 µM (inactive)
[16]
  GI50: > 100 µM (inactive)
[17]
  GI50: 26.2 µM (inactive)

## C[N+](C)(C)CC(CC(=O)[O-])C1CC1 (configuration not stated)
[1]
  GI50: > 100 µM (inactive)
[2]
  GI50: > 100 µM (inactive)
[3]
  GI50: > 100 µM (inactive)
[4]
  GI50: > 100 µM (inactive)
[5]
  GI50: > 100 µM (inactive)
[6]
  GI50: > 100 µM (inactive)
[7]
  GI50: > 100 µM (inactive)
[9]
  GI50: > 100 µM (inactive)
[10]
  GI50: > 100 µM (inactive)
[11]
  GI50: > 100 µM (inactive)
[12]
  GI50: > 100 µM (inactive)
[13]
  GI50: > 100 µM (inactive)
[14]
  GI50: > 100 µM (inactive)
[15]
  GI50: > 100 µM (inactive)
[16]
  GI50: > 100 µM (inactive)
[17]
  GI50: > 100 µM (inactive)

## O=c1c(-c2cccc3ccccc23)c(-c2cccc3ccccc23)c1=O
[1]
  GI50: 0.535 µM (active)
[2]
  GI50: 2.45 µM (inactive)
[3]
  GI50: 0.608 µM (active)
[4]
  GI50: 2.24 µM (inactive)
[5]
  GI50: 1.04 µM (active)
[6]
  GI50: 1.59 µM (inactive)
[7]
  GI50: 2.18 µM (inactive)
[8]
  GI50: 1.85 µM (inactive)
[9]
  GI50: 0.948 µM (active)
[10]
  GI50: 0.446 µM (active)
[11]
  GI50: 7.67 µM (inactive)
[12]
  GI50: 0.489 µM (active)
[13]
  GI50: 5.06 µM (inactive)
[14]
  GI50: 0.33 µM (active)
[15]
  GI50: 0.577 µM (active)
[16]
  GI50: 3.07 µM (inactive)
[17]
  GI50: 0.35 µM (active)
